{"source": "the NIST ThermoML archive (doi:10.1007/s10765-019-2568-3)", "key": {"[1]": {"assay": "molar heat capacity at constant pressure", "conditions": "100 kPa, DSC"}, "[2]": {"conditions": "for thermal conductivity / thermal diffusivity: 100 kPa; for thermal diffusivity: Laser flash apparatus"}}, "note": "Numbers after ± are expanded uncertainties.", "data": [{"smiles": "[Fe]", "note": "[iron]", "values": [{"measurement": "molar heat capacity at constant pressure", "setting": "[1]; 293.15 K, Crystal 4", "result": "24.96 ± 1.6", "unit": "J/K/mol"}, {"measurement": "molar heat capacity at constant pressure", "setting": "[1]; 373.15 K, Crystal 4", "result": "27.53 ± 1.5", "unit": "J/K/mol"}, {"measurement": "molar heat capacity at constant pressure", "setting": "[1]; 473.15 K, Crystal 4", "result": "29.54 ± 1.7", "unit": "J/K/mol"}, {"measurement": "molar heat capacity at constant pressure", "setting": "[1]; 573.15 K, Crystal 4", "result": "31.38 ± 2", "unit": "J/K/mol"}, {"measurement": "molar heat capacity at constant pressure", "setting": "[1]; 673.15 K, Crystal 4", "result": "34.23 ± 2.1", "unit": "J/K/mol"}, {"measurement": "molar heat capacity at constant pressure", "setting": "[1]; 773.15 K, Crystal 4", "result": "37.36 ± 2.2", "unit": "J/K/mol"}, {"measurement": "molar heat capacity at constant pressure", "setting": "[1]; 873.15 K, Crystal 4", "result": "41.66 ± 2.5", "unit": "J/K/mol"}, {"measurement": "molar heat capacity at constant pressure", "setting": "[1]; 973.15 K, Crystal 4", "result": "48.64 ± 3.4", "unit": "J/K/mol"}, {"measurement": "molar heat capacity at constant pressure", "setting": "[1]; 1073.2 K, Crystal 3", "result": "52.72 ± 4", "unit": "J/K/mol"}, {"measurement": "molar heat capacity at constant pressure", "setting": "[1]; 1173.2 K, Crystal 3", "result": "42.22 ± 3.3", "unit": "J/K/mol"}, {"measurement": "molar heat capacity at constant pressure", "setting": "[1]; 1273.2 K, Crystal 2", "result": "33.62 ± 2.4", "unit": "J/K/mol"}, {"measurement": "mass density", "setting": "[2]; 293 K, 101.33 kPa, Crystal 4", "result": "7849 ± 6", "unit": "kg/m3"}, {"measurement": "thermal conductivity", "setting": "[2]; 293.15 K, Crystal 4", "result": "82.5 ± 7", "unit": "W/m/K"}, {"measurement": "thermal diffusivity", "setting": "[2]; 293.15 K, Crystal 4", "result": "2.22e-05 ± 1.2e-06", "unit": "m2/s"}, {"measurement": "thermal conductivity", "setting": "[2]; 373.15 K, Crystal 4", "result": "73.4 ± 5.4", "unit": "W/m/K"}, {"measurement": "thermal diffusivity", "setting": "[2]; 373.15 K, Crystal 4", "result": "1.92e-05 ± 1.1e-06", "unit": "m2/s"}, {"measurement": "thermal conductivity", "setting": "[2]; 473.15 K, Crystal 4", "result": "65.5 ± 4.8", "unit": "W/m/K"}, {"measurement": "thermal diffusivity", "setting": "[2]; 473.15 K, Crystal 4", "result": "1.58e-05 ± 8.2e-07", "unit": "m2/s"}, {"measurement": "thermal conductivity", "setting": "[2]; 573.15 K, Crystal 4", "result": "58.2 ± 4.5", "unit": "W/m/K"}, {"measurement": "thermal diffusivity", "setting": "[2]; 573.15 K, Crystal 4", "result": "1.31e-05 ± 6.7e-07", "unit": "m2/s"}, {"measurement": "thermal conductivity", "setting": "[2]; 673.15 K, Crystal 4", "result": "52 ± 4.1", "unit": "W/m/K"}, {"measurement": "thermal diffusivity", "setting": "[2]; 673.15 K, Crystal 4", "result": "1.08e-05 ± 5.5e-07", "unit": "m2/s"}, {"measurement": "thermal conductivity", "setting": "[2]; 773.15 K, Crystal 4", "result": "46.7 ± 3.6", "unit": "W/m/K"}, {"measurement": "thermal diffusivity", "setting": "[2]; 773.15 K, Crystal 4", "result": "8.91e-06 ± 4.6e-07", "unit": "m2/s"}, {"measurement": "thermal conductivity", "setting": "[2]; 873.15 K, Crystal 4", "result": "41.1 ± 3", "unit": "W/m/K"}, {"measurement": "thermal diffusivity", "setting": "[2]; 873.15 K, Crystal 4", "result": "7.06e-06 ± 3.5e-07", "unit": "m2/s"}, {"measurement": "thermal conductivity", "setting": "[2]; 973.15 K, Crystal 4", "result": "36.2 ± 3.2", "unit": "W/m/K"}, {"measurement": "thermal diffusivity", "setting": "[2]; 973.15 K, Crystal 4", "result": "5.18e-06 ± 2.8e-07", "unit": "m2/s"}, {"measurement": "thermal conductivity", "setting": "[2]; 1073.2 K, Crystal 3", "result": "31.5 ± 2.8", "unit": "W/m/K"}, {"measurement": "thermal diffusivity", "setting": "[2]; 1073.2 K, Crystal 3", "result": "4.49e-06 ± 2.4e-07", "unit": "m2/s"}, {"measurement": "thermal conductivity", "setting": "[2]; 1173.2 K, Crystal 3", "result": "30 ± 3", "unit": "W/m/K"}, {"measurement": "thermal diffusivity", "setting": "[2]; 1173.2 K, Crystal 3", "result": "5.27e-06 ± 2.6e-07", "unit": "m2/s"}, {"measurement": "thermal conductivity", "setting": "[2]; 1273.2 K, Crystal 2", "result": "28.4 ± 2.8", "unit": "W/m/K"}, {"measurement": "thermal diffusivity", "setting": "[2]; 1273.2 K, Crystal 2", "result": "6.33e-06 ± 3.5e-07", "unit": "m2/s"}]}]}
